26 molecules from ChEMBL document CHEMBL5316268 (J Med Chem, 2023) can be followed below.

Series [1] concerns the target T1, 5'-nucleotidase (Homo sapiens, UniProt P21589). The series is described as follows: Inhibition of cell surface anchored CD73 (unknown origin) expressed in human SK-MEL-28 cells incubated for 30 mins by malachite green assay. Format: cell-based.
Series [2] addresses T1, 5'-nucleotidase. The series is described as follows: Inhibition of CD73 in human plasma incubated for 15 mins in presence of 15N5-AMP by LC/MS analysis. Format: cell-free.
A short description of series [3]: Clearance in CD rat at 1 mg/kg, iv measured for 24 hrs by LC-MS/MS analysis. Format: ADME, organism-based. To be noted: in vivo.
Series [4] has as its target T1, 5'-nucleotidase. The series is described as follows: Inhibition of recombinant human CD73.
Series [5] deals with T1, 5'-nucleotidase. Briefly: Inhibition of soluble C-terminal 6His-tagged recombinant human CD73 (27 to 547 residues) expressed in CHO cells incubated for 1 hr by malachite green based spectrophotometer assay. Format: cell-based.
Series [6] can be described thus: Selectivity ratio of IC50 for CD73 in human plasma to IC50 for C-terminal 6His-tagged recombinant human CD73 (27 to 547 residues) expressed in CHO cells. Format: cell-based.
Series [7] can be described thus: Oral bioavailability in CD rat at 50 mg/kg measured for 24 hrs by LC-MS/MS analysis. Format: ADME, organism-based. To be noted: CD, in vivo.
The subject of a further series is EG7. The series is described as follows: Antitumor activity against mouse EG7 cells implanted in mouse. Format: functional, cell-based.
Series [8] addresses T2, 5'-nucleotidase (Mus musculus, UniProt Q61503).
T2 sequence (Q61503 whole entry): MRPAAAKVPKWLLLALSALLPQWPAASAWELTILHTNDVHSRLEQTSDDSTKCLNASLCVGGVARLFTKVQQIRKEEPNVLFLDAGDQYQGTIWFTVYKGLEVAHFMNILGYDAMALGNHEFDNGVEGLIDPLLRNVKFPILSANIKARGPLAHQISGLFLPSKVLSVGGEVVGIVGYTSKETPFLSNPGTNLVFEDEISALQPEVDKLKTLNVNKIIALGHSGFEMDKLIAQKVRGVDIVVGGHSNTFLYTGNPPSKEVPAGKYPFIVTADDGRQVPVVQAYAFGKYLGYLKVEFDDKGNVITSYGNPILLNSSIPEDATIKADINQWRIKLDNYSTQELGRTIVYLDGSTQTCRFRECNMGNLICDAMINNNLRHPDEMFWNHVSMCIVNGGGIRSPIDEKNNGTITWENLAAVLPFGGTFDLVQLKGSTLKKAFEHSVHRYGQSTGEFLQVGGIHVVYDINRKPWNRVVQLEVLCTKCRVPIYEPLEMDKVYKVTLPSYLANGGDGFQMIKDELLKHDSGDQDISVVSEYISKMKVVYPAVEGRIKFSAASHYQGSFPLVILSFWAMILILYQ
The series is described as follows: Inhibition of C-terminal 6His-tagged recombinant mouse CD73 (29 to 549 residues) expressed in CHO cells incubated for 1 hr by malachite green assay. Format: cell-based.

Activity calls are given as the source filed them. No cut-off for these calls is given here.

T1 sequence (P21589 whole entry): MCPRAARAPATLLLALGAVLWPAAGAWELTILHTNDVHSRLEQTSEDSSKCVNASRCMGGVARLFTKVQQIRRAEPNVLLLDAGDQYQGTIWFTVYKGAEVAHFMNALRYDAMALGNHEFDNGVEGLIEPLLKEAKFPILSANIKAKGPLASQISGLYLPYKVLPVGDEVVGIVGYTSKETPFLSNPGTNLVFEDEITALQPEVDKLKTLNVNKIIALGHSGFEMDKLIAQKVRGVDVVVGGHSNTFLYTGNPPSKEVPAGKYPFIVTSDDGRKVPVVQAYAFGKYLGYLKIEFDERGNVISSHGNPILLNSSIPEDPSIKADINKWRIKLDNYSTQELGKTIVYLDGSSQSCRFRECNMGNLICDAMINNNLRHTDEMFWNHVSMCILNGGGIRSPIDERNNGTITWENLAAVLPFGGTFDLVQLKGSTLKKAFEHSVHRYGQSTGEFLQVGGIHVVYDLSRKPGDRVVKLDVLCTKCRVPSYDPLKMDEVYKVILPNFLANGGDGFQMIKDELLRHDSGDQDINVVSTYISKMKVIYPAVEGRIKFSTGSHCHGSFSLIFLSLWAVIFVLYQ

One may read the IC50 as the midpoint of a concentration-inhibition curve. With `C[C@@]1(O)[C@@H](COC(Cc2ccccc2)(C(=O)O)C(=O)O)O[C@@H](n2cnc3c(N)nc(Cl)nc32)[C@@H]1O`, the IC50 on 5'-nucleotidase [1] stood at 169 nM.
In general, clearance refers to the rate of elimination divided by the concentration. Lower therefore signals a low capacity for elimination. For the molecule `C#C[C@@]1(O)[C@@H](COC(Cc2ccccc2)(C(=O)O)C(=O)O)O[C@@H](n2cnc3c(N(C)C)nc(Cl)nc32)[C@@H]1O`, at 5'-nucleotidase [2], the IC50 came out at 16 nM. Also, in series [3], the clearance amounted to 18 mL/min/kg.
With `C#C[C@@]1(O)[C@@H](COC(Cc2ccccc2)(C(=O)O)C(=O)O)O[C@@H](n2cnc3c(N[C@@H](C)c4ccccc4)nc(Cl)nc32)[C@@H]1O`, the concentration for half-maximal inhibition (IC50) at 5'-nucleotidase [2] turned out to be 208 nM. Besides, the clearance in [3] stood at 9.2 mL/min/kg.
As to `CC#C[C@@]1(O)[C@@H](COC(Cc2ccccc2)(C(=O)O)C(=O)O)O[C@@H](n2cnc3c(N)nc(Cl)nc32)[C@@H]1O`, the IC50 on 5'-nucleotidase [2] amounted to 1.6 nM. Besides, in series [3], the clearance was 9.9 mL/min/kg.
With `Nc1nc(Cl)nc2c1ncn2[C@@H]1O[C@H](COC(Cc2ccccc2)(C(=O)O)C(=O)O)[C@@H](O)[C@@H]1F`, the IC50 at 5'-nucleotidase [4] is 159 nM.
`C#C[C@@]1(O)[C@@H](COC(Cc2ccccc2)(C(=O)O)C(=O)O)O[C@@H](n2cnc3c(NCC4CC4)nc(Cl)nc32)[C@@H]1O`: the half-maximal inhibitory concentration (IC50) at 5'-nucleotidase [2] is 11.5 nM. Moreover, in [3], the clearance is 3.7 mL/min/kg.
As to `C#C[C@@]1(O)[C@@H](COC(Cc2ccccc2)(C(=O)O)C(=O)O)O[C@@H](n2cnc3c(NC(C)C)nc(Cl)nc32)[C@@H]1O`, the IC50 at 5'-nucleotidase [2] turned out to be 50 nM. The molecule also registered a clearance in series [3] of 1.4 mL/min/kg.
For `C#C[C@@]1(O)[C@@H](COC(Cc2ccccc2)(C(=O)O)C(=O)O)O[C@@H](n2cnc3c(NC)nc(Cl)nc32)[C@@H]1O`, the IC50 on 5'-nucleotidase [2] came to 15.5 nM. This molecule returned a clearance in series [3] of 10 mL/min/kg.
As for `CC[C@@]1(O)[C@@H](COC(Cc2ccccc2)(C(=O)O)C(=O)O)O[C@@H](n2cnc3c(N)nc(Cl)nc32)[C@@H]1O`, the IC50 on 5'-nucleotidase [5] is 200 nM.
`C#C[C@@]1(O)[C@@H](COC(Cc2ccc(-c3ccccc3C(=O)O)cc2)(C(=O)O)C(=O)O)O[C@@H](n2cnc3c(N)nc(Cl)nc32)[C@@H]1O`: the IC50 at 5'-nucleotidase [2] was determined as 2.8 nM. In addition, the clearance in series [3] is 2.9 mL/min/kg. The Ratio IC50 in series [6] worked out at 14.
Consider `C#C[C@@]1(O)[C@@H](COC(Cc2ccccc2)(C(=O)O)C(=O)O)O[C@@H](n2cnc3c(NC(C)C)cc(Cl)nc32)[C@@H]1O`, for which the results for the IC50 at 5'-nucleotidase [5] and on 5'-nucleotidase [2] were 2 nM and 160 nM, respectively. Moreover, the clearance in [3] was found to be 0.91 mL/min/kg.
As to `CN(C(=O)c1ccccc1)c1ccc(CC(OC[C@H]2O[C@@H](n3cnc4c(N)nc(Cl)nc43)[C@@H](F)[C@@H]2O)(C(=O)O)C(=O)O)cc1`, at 5'-nucleotidase [4], the IC50 was determined as 9 nM.
As to `C#C[C@@]1(O)[C@@H](COC(Cc2ccccc2)(C(=O)O)C(=O)O)O[C@@H](n2cnc3c(N[C@H](C)c4ccccc4)nc(Cl)nc32)[C@@H]1O`, the IC50 at 5'-nucleotidase [2] is 917 nM. This molecule also gave a clearance in series [3] of 1 mL/min/kg.
`Nc1ncnc2c1ncn2[C@@H]1O[C@H](COP(=O)(O)CP(=O)(O)O)[C@@H](O)[C@H]1O` [PHOSPHOMETHYLPHOSPHONIC ACID ADENOSYL ESTER]: the IC50 on 5'-nucleotidase [4] came to 6090 nM.
Turning to `C#C[C@@]1(O)[C@@H](COC(Cc2ccc(-c3ccccc3)cc2)(C(=O)O)C(=O)O)O[C@@H](n2cnc3c(N)nc(Cl)nc32)[C@@H]1O`, the IC50 at 5'-nucleotidase [2] was found to be 15.6 nM. The clearance in series [3] amounted to 64 mL/min/kg. In addition, the Ratio IC50 in [6] stood at 52.
Usually bioavailability stands for the share of a dose that reaches the circulation, judged against a reference dose that is usually intravenous. Read a low bioavailability as poor availability. Regarding `Nc1nc(Cl)nc2c1ncn2[C@@H]1O[C@H](COC(Cc2ccccc2)(C(=O)O)C(=O)O)[C@@H](O)[C@H]1O`, the figures for the IC50 at 5'-nucleotidase [1] and at 5'-nucleotidase [4] were 434 nM and 100 nM, respectively. The molecule also returned a clearance in series [3] of 20.4 mL/min/kg. For the same molecule, the bioavailability in [7] is 1.8%.
On to `C#C[C@@]1(O)[C@@H](COC(Cc2ccccc2)(C(=O)O)C(=O)O)O[C@@H](n2cnc3c(N(C)C)cc(Cl)nc32)[C@@H]1O`, for which the IC50 at 5'-nucleotidase [5] worked out at 2.1 nM; on 5'-nucleotidase [2], 41 nM. The molecule further yielded a clearance in [3] of 5.9 mL/min/kg.
On to `Nc1nc(Cl)nc2c1ncn2[C@@H]1O[C@H](COC(Cc2ccccc2)(C(=O)O)C(=O)O)[C@](O)(C#CC2CC2)[C@H]1O`, for which the IC50 on 5'-nucleotidase [2] turned out to be 1.5 nM. This molecule yielded a clearance in [3] of 54 mL/min/kg.
The corresponding values for `C#C[C@@]1(O)[C@@H](COC(Cc2ccccc2)(C(=O)O)C(=O)O)O[C@@H](n2cnc3c(NCc4ccccc4)nc(Cl)nc32)[C@@H]1O` are more than 100 nM and 6.3 mL/min/kg.
For `C#C[C@@]1(O)[C@@H](COC(Cc2ccccc2)(C(=O)O)C(=O)O)O[C@@H](n2cnc3c(-c4cccs4)nc(Cl)nc32)[C@@H]1O`, the IC50 on 5'-nucleotidase [2] came out at 136 nM.
`C#C[C@@]1(O)[C@@H](COC(Cc2ccccc2)(C(=O)O)C(=O)O)O[C@@H](n2cnc3c(NCCO)nc(Cl)nc32)[C@@H]1O`: the concentration for half-maximal inhibition (IC50) at 5'-nucleotidase [2] is 7.2 nM. Also, in series [3], the clearance worked out at 7.5 mL/min/kg.
In the case of `C#C[C@@]1(O)[C@@H](COC(Cc2ccccc2)(C(=O)O)C(=O)O)O[C@@H](n2cnc3c(N4CC(O)C4)nc(Cl)nc32)[C@@H]1O`, at 5'-nucleotidase [2], the IC50 amounted to 5.4 nM. Moreover, in series [3], the clearance worked out at 17 mL/min/kg.
Regarding `C#C[C@@]1(O)[C@@H](COC(Cc2ccc(N3CCCCC3=O)cc2)(C(=O)O)C(=O)O)O[C@@H](n2cnc3c(N)nc(Cl)nc32)[C@@H]1O`, the Ratio IC50 in series [6] turned out to be 1.
Molecule `C#C[C@@]1(O)[C@@H](COC(Cc2ccccc2)(C(=O)O)C(=O)O)O[C@@H](n2cnc3c(N)nc(Cl)nc32)[C@@H]1O` returned a clearance in series [3] of 13 mL/min/kg. For the same molecule, in the series on EG7, the result was Active. For the same molecule, at 5'-nucleotidase [8], the IC50 amounted to 7.3 nM.
With `C#C[C@@]1(O)[C@@H](COC(Cc2ccc(-c3ccc[nH]c3=O)cc2)(C(=O)O)C(=O)O)O[C@@H](n2cnc3c(N)nc(Cl)nc32)[C@@H]1O`, the IC50 on 5'-nucleotidase [2] is 0.38 nM. Also, in series [6], the Ratio IC50 was 3.8.
Consider `C#C[C@@]1(O)[C@@H](COC(Cc2ccccc2)(C(=O)O)C(=O)O)O[C@@H](n2cnc3c(NCC)nc(Cl)nc32)[C@@H]1O`, for which, on 5'-nucleotidase [2], the IC50 turned out to be 6.5 nM. The clearance in series [3] is 7.8 mL/min/kg.
